Data: patent publication US8283465B2, “Triazolopyridine compound, and action thereof as prolyl hydroxylase inhibitor or erythropoietin production-inducing agent” (Japan Tobacco Inc., priority 2009, dated 2012)
Where a name gives a salt, the structure may show the parent alone. Read-outs that look alike come from different tables or passages of the source.

What was measured:
human PHD2 = target: T1, human PHD2 (Homo sapiens, UniProt Q9GZT9); assay: Measurement of human PHD inhibitory activity (TR-FRET, hydroxylation of HIF-1α partial peptide); format: biochemical; conditions: human PHD2 enzyme 1 nM, 25° C. 30 min, values consisting solely of numbers
T1 construct: made in house; host or cells: Sf9 insect cells (baculovirus, pVL1393 vector)
T1 sequence (Q9GZT9 whole entry): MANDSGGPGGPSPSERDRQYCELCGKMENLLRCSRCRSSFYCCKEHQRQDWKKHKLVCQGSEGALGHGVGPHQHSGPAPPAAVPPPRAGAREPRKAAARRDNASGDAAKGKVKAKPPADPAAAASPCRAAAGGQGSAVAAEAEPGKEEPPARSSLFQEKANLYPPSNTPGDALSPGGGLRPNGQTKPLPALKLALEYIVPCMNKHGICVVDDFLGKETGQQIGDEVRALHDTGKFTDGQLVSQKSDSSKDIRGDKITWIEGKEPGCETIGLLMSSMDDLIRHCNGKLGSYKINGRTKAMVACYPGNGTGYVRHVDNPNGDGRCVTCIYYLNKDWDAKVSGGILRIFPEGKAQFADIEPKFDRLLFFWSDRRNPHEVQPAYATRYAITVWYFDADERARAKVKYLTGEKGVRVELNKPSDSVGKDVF
Experimental: Human PHD2 was expressed in insect cell (Sf9 cell). […] The vector and baculovirus were cotransfected into Sf9, and human PHD2 expression baculovirus was isolated in Sf9. By using the virus, human PHD2-expressed cell was prepared. […] The cell lysate was flowed into a column filled with ANTI-FLAG M2 Affinity Gel Freezer Safe (SIGMA), washed, and the N-terminal FLAG-tag-added human PHD2 was eluted and collected.
VBC complex (VHL/Elongin B/Elongin C) was expressed in Escherichia coli (BL21(DE3)). […] After these expression vectors were transfected into Escherichia coli (BL21(DE3)), Escherichia coli was cultured at 37° C. in the medium containing IPTG. The collected Escherichia coli was disrupted by sonication and flowed into a column filled with Ni-NTA superflow (QIAGEN), washed, and the product was eluted and collected. The eluate was flowed into a column filled with Glutathione Sepharose 4B, washed, and the product was eluted and collected. […]
As for human PHD2 enzyme activity, hydroxylation of proline residue contained in the 19 residues of the partial peptide based on the sequence of HIF-1α as a substrate was measured by TR-FRET (Time-Resolved Fluorescence Resonance Energy Transfer) method.
A test compound and a substrate solution were added to a 96-well plate. The reaction was started by addition of a human PHD2 enzyme solution (final concentration 1 nM) to the reaction system. After incubation at 25° C. for 30 min, a stop solution containing EDTA was added, and a VBC complex solution containing europium (Eu) and Xlent was added, and the amount of hydroxylated proline residue was quantified by time-resolved fluorescence spectroscopy. The time-resolved fluorescence in each well was measured, and the human PHD inhibitory activity (%) of the test compound was calculated based on the values of enzyme non-addition well and test compound non-addition well.

[1] = system: human EPO production, Hep3B cells; assay: Human EPO production activity in Hep3B cells (EPO-ELISA of culture supernatant); format: cell-based; conditions: for EC50: Homo sapiens, 24 hr incubation, values consisting solely of numbers, read-out: EC50 (μM) in vitro, human EPO production activity; for production activity (%) at 30 μM in vitro, human EPO: 24 hr, values containing %, relative to maximum production
Experimental: The activity of the test compound on human EPO production was measured using Hep3B (AMC) established from human liver-derived cell line.
Hep3B cells were cultured in Eagle-MEM medium containing 10% fetal bovine serum, and the test compound was diluted with dimethyl sulfoxide (DMSO).
Hep3B cells were cultured in a 96-well plate, and a test compound was added at each concentration 24 hr later. After incubation at 37° C. for 24 hr, the culture supernatant was collected. The concentration of human EPO produced in the culture supernatant was measured using a human EPO-ELISA kit (manufactured by StemCell Technologies, 01630) according to the manufacturer's explanation, and the human EPO production activity (%) of the test compound was calculated based on the maximum value of production under the above conditions and the value without addition of the test compound. […] In these Tables, the values consisting solely of numbers show EC50 (μM) and those containing % show human EPO production activity (%) at […].

[2] = read-out: IC50 (μM) in vitro, human PHD inhibitory activity

| SMILES | IC50 (human PHD2; [2]) [µM] | EC50 [1] [µM] | production activity (%) at 30 μM in vitro, human EPO [1] [%] | IC50 (human PHD2; IC50 (μM) in vitro, human PHD inhibitory activity) [µM] | EC50 ([1]; Hep3B, 24 h) [µM] |
| --- | --- | --- | --- | --- | --- |
| CCC(CC)Cc1cc(O)c(C(=O)NCC(=O)O)c2ncnn12 [Example 45, {[5-(2-ethylbutyl)-7-hydroxy[1,2,4]triazolo[1,5-a]pyridine-8-carbonyl]amino}acetic acid hydrochloride] | 0.92 | 9.9 | – | – | – |
| O=C(O)CNC(=O)c1c(O)cc(-c2cc(Cl)cc(Cl)c2)n2ncnc12 [Example 46, {[5-(3,5-dichlorophenyl)-7-hydroxy[1,2,4]triazolo[1,5-a]pyridine-8-carbonyl]amino}acetic acid hydrochloride] | 0.29 | 4.8 | – | – | – |
| O=C(O)CNC(=O)c1c(O)cc(-c2ccc(F)c(Cl)c2)n2ncnc12 [Example 23, {[5-(3-chloro-4-fluorophenyl)-7-hydroxy[1,2,4]triazolo[1,5-a]pyridine-8-carbonyl]amino}acetic acid hydrochloride] | 0.19 | 7.8 | – | – | – |
| O=C(O)CNC(=O)c1c(O)cc(CCCc2ccccc2)n2ncnc12 [Example 29, {[7-hydroxy-5-(3-phenylpropyl)[1,2,4]triazolo[1,5-a]pyridine-8-carbonyl]amino}acetic acid] | 0.92 | 11.3 | – | – | – |
| O=C(O)CNC(=O)c1c(O)cc(-c2cc(C(F)(F)F)cc(C(F)(F)F)c2)c2ncnn12 [Example 97, {[8-(3,5-bis-trifluoromethyl-phenyl)-6-hydroxy[1,2,4]triazolo[1,5-a]pyridine-5-carbonyl]amino} acetic acid hydrochloride] | 0.13 | 3.5 | – | – | – |
| CCC(C)(C)CCc1cc(O)c(C(=O)NCC(=O)O)c2ncnn12 [Example 48, hydrochloride] | 0.59 | 4.5 | – | – | – |
| O=C(O)CNC(=O)c1c(O)cc(-c2ccccc2F)n2ncnc12 [Example 61, {[5-(2-fluorophenyl)-7-hydroxy[1,2,4]triazolo[1,5-a]pyridine-8-carbonyl]amino} acetic acid hydrochloride] | 0.22 | 28.8 | – | – | – |
| O=C(O)CNC(=O)c1c(O)cc(-c2cc(Cl)cc(C(F)(F)F)c2)n2ncnc12 [Example 36, {[5-(3-chloro-5-trifluoromethyl-phenyl)-7-hydroxy[1,2,4]triazolo[1,5-a]pyridine-8-carbonyl]amino}acetic acid hydrochloride] | 0.72 | 10.5 | – | – | – |
| O=C(O)CNC(=O)c1c(O)cc(-c2cccc(Cl)c2F)n2ncnc12 [Example 56, {[5-(3-chloro-2-fluorophenyl)-7-hydroxy[1,2,4]triazolo[1,5-a]pyridine-8-carbonyl]amino} acetic acid hydrochloride] | 0.19 | 8.4 | – | – | – |
| O=C(O)CNC(=O)c1c(O)cc(-c2cc(F)cc(Cl)c2)c2ncnn12 [Example 105, {[8-(3-chloro-5-fluorophenyl)-6-hydroxy[1,2,4]triazolo[1,5-a]pyridine-5-carbonyl]amino} acetic acid hydrochloride] | 0.1 | 5.9 | – | – | – |
| O=C(O)CNC(=O)c1c(O)c(CCc2ccccc2)cn2ncnc12 [Example 5, [(7-hydroxy-6-phenethyl[1,2,4]triazolo[1,5-a]pyridine-8-carbonyl)amino]acetic acid hydrochloride] | 1.17 | 11.5 | – | – | – |
| O=C(O)CNC(=O)c1c(O)cc(-c2cccc(C(F)(F)F)c2)c2ncnn12 [Example 110, {[6-hydroxy-8-(3-trifluoromethyl phenyl)[1,2,4]triazolo[1,5-a]pyridine-5-carbonyl]amino} acetic acid hydrochloride] | 0.15 | 6.5 | – | – | – |
| CCCCc1c(Cl)c(O)c(C(=O)NCC(=O)O)c2ncnn12 [Example 6, [(5-butyl-6-chloro-7-hydroxy[1,2,4]triazolo[1,5-a]pyridine-8-carbonyl)amino]acetic acid hydrochloride] | 0.87 | 20.8 | – | – | – |
| Cl.O=C(O)CNC(=O)c1c(O)ccn2c(CCc3ccccc3)nnc12 [Example 114, [(7-hydroxy-3-phenethyl[1,2,4]triazolo[4,3-a]pyridine-8-carbonyl)amino] acetic acid hydrochloride] | 1.2 | – | 0 | – | – |
| O=C(O)CNC(=O)c1c(O)cc(C2CCCC2)n2ncnc12 [Example 30, [(5-cyclopentyl-7-hydroxy[1,2,4]triazolo[1,5-a]pyridine-8-carbonyl)amino]acetic acid hydrochloride] | 0.98 | 15.4 | – | – | – |
| O=C(O)CNC(=O)c1c(O)cc(-c2cc(Cl)cc(Cl)c2)c2ncnn12 [Example 89, {[8-(3,5-dichlorophenyl)-6-hydroxy[1,2,4]triazolo[1,5-a]pyridine-5-carbonyl]amino} acetic acid hydrochloride] | 0.12 | 4.2 | – | – | – |
| CC(C)(C)CCc1cc(O)c(C(=O)NCC(=O)O)n2ncnc12 [Example 8, {[8-(3,3-dimethyl-butyl)-6-hydroxy[1,2,4]triazolo[1,5-a]pyridine-5-carbonyl]amino}acetic acid hydrochloride] | 0.49 | 13.4 | – | – | – |
| O=C(O)CNC(=O)c1c(O)c(-c2ccccc2)cn2cnnc12 [Example 9, [(7-hydroxy-6-phenyl[1,2,4]triazolo[4,3-a]pyridine-8-carbonyl)amino]acetic acid] | 1.57 | – | 1 | – | – |
| C[C@H](NC(=O)c1c(O)cc(CCc2ccccc2)n2ncnc12)C(=O)O [Example 69, (S)-2-[(7-hydroxy-5-phenethyl[1,2,4]triazolo[1,5-a]pyridine-8-carbonyl)amino] propionic acid hydrochloride] | 1.62 | 12 | – | – | – |
| Cl.O=C(O)CNC(=O)c1c(O)c(-c2ccccc2)cn2c(-c3ccccc3)nnc12 [Example 111, [(7-hydroxy-3,6-diphenyl[1,2,4]triazolo[4,3-a]pyridine-8-carbonyl)amino] acetic acid hydrochloride] | 1.1 | – | 0 | – | – |
| O=C(O)CNC(=O)c1c(O)cc(-c2ccc(Cl)c(F)c2)n2ncnc12 [Example 78, {[5-(4-chloro-3-fluorophenyl)-7-hydroxy[1,2,4]triazolo[1,5-a]pyridine-8-carbonyl]amino} acetic acid hydrochloride] | 0.15 | 6.6 | – | – | – |
| O=C(O)CNC(=O)c1c(O)cc(CC2CCC2)n2ncnc12 [Example 53, [(5-cyclobutylmethyl-7-hydroxy[1,2,4]triazolo[1,5-a]pyridine-8-carbonyl)amino] acetic acid hydrochloride] | 0.5 | 8.9 | – | – | – |
| O=C(O)CNC(=O)c1c(O)cc(CCc2ccccc2)n2ncnc12 [Example 2, [(7-hydroxy-5-phenethyl[1,2,4]triazolo[1,5-a]pyridine-8-carbonyl)amino]acetic acid hydrochloride] | – | – | – | 0.22 | 10.9 |
| O=C(O)CNC(=O)c1c(O)cc(-c2cc(F)cc(F)c2)c2ncnn12 [Example 85, {[8-(3,5-difluorophenyl)-6-hydroxy[1,2,4]triazolo[1,5-a]pyridine-5-carbonyl]amino} acetic acid hydrochloride] | 0.16 | 20.6 | – | – | – |
| O=C(O)CNC(=O)c1c(O)cc(-c2ccc(Cl)c(Cl)c2)c2ncnn12 [Example 95, {[8-(3,4-dichlorophenyl)-6-hydroxy[1,2,4]triazolo[1,5-a]pyridine-5-carbonyl]amino} acetic acid hydrochloride] | 0.12 | 4.3 | – | – | – |
| O=C(O)CNC(=O)c1c(O)cc(-c2ccc(F)c(Cl)c2)c2ncnn12 [Example 94, {[8-(3-chloro-4-fluorophenyl)-6-hydroxy[1,2,4]triazolo[1,5-a]pyridine-5-carbonyl]amino} acetic acid hydrochloride] | 0.11 | 9.7 | – | – | – |
| O=C(O)CNC(=O)c1c(O)cc(-c2ccc(Cl)cc2)c2ncnn12 [Example 108, {[8-(4-chlorophenyl)-6-hydroxy[1,2,4]triazolo[1,5-a]pyridine-5-carbonyl]amino} acetic acid] | 0.16 | 8.9 | – | – | – |
